Publication PMC11831592, “Repurposing Linezolid in Conjunction with Histone Deacetylase Inhibitor Access in the Realm of Glioblastoma Therapies” (Journal of Medicinal Chemistry, 2025)

Assays:
[1] = Adverse reactions in treated tumor-bearing mice; type: in vivo; conditions: mice of the orthotopic tumor models
Protocol: (§1) For orthotopic inoculation, CT-2A cells (1 × 10^5) or CT-2A-R (2 × 10^5) were suspended in 4 μL of DMEM and implanted into the brain of B6 mice. PT#3-R cells (5 × 10^5) were suspended in 4 μL of DMEM and implanted into the brain of SCID mice. After cell implantation, mice were monitored daily for survival, and their body weight was measured every 3 days starting from the seventh day. The oral vehicle consisted of 40% ethyl oleate, 12% lecithin, 20% propylene glycol, and 28% Triton X-100. Mice were administered 5 μL of vehicle per gram of body weight along with 50 mg/kg TMZ or a combination of TMZ and compound 1. Intraperitoneal injections were administered with DMSO (solvent control), TMZ (10 μg/kg), TMZ (10 μg/kg), and compound 1 (10 or 20 μg/kg). Upon the natural death of the mice, brains were extracted and entrusted to BioTools for sectioning and HE staining.
Supplementary information VIII. Body weight changes in mice administered with vehicle, TMZ, and Compound 1 in vivo.
S-VIII-1. Body weight changes in mice administered with DMSO, TMZ, and Compound 1 intraperitoneally following orthotopic CT-2A tumor implantation .
S-VIII-2. Body weight changes in mice administered with vehicle, TMZ, and Compound 1 intraperitoneally following orthotopic CT-2AR tumor implantation.
S-VIII-3. […]

CT-2A astrocytoma cells = assay: Orthotopic CT-2A tumor model, IVIS; type: in vivo, mouse; conditions: 10 mg/kg intraperitoneally
Protocol: Animals were imaged using an IVIS to monitor tumor growth and target expression changes. Initially, animals were anesthetized with isoflurane prior to imaging to minimize movement artifacts. D-luciferin (150 mg/kg) was then administered via an intraperitoneal injection. After 60 s, animals were positioned on the imaging platform, and images were acquired with a 10-s exposure. Experimental data were collected and quantified for fluorescence or bioluminescence signals by using Living Image software in the IVIS system. After each imaging session, animal ID, imaging parameters, and imaging time were recorded for subsequent analysis.
as §1, with “Intraperitoneal injections were administered with DMSO (solvent control), TMZ (10 μg/kg), TMZ (10 μg/kg), and compound 1 (10 or 20 μg/kg).” left out

HDAC6 = molecular target: T1, HDAC6 (Homo sapiens, UniProt Q9UBN7); assay: HDAC enzyme inhibition assay, HDAC6; type: biochemical; conditions: 10-dose, 3-fold serial dilution starting at 10 μM
T1 construct: purchased Reaction Biology Corporation, Malvern, PA (contract assay service)
T1 sequence (Q9UBN7 1-1215): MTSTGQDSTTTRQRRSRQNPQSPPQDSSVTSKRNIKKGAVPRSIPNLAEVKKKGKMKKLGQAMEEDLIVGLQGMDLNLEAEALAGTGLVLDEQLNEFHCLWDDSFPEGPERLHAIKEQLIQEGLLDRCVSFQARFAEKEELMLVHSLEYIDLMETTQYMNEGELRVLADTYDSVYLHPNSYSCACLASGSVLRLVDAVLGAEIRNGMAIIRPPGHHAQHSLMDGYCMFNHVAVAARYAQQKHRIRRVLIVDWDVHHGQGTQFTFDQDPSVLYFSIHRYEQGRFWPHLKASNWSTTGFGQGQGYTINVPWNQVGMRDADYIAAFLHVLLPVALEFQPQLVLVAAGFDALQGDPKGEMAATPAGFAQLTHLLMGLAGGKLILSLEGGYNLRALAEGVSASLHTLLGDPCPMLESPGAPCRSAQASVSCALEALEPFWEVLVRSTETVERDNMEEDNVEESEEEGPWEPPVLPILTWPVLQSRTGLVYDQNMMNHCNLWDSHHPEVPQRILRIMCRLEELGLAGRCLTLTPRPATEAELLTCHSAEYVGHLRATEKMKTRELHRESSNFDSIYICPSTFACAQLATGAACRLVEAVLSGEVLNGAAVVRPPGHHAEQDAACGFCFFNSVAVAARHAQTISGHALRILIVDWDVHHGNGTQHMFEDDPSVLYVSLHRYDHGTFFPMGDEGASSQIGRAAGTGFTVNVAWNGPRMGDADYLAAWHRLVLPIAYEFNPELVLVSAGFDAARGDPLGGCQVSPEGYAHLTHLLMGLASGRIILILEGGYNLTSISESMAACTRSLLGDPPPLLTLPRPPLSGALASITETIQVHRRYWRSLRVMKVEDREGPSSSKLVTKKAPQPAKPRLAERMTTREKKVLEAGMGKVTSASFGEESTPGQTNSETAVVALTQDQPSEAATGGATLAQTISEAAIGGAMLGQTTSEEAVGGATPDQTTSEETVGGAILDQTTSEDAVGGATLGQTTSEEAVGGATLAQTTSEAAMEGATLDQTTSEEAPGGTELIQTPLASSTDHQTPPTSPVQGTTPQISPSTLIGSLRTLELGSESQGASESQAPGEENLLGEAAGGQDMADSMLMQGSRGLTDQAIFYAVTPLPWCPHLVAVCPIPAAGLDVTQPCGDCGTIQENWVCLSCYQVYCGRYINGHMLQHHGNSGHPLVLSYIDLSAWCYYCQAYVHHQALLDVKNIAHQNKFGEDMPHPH
Protocol: Enzyme inhibition assays were performed by the Reaction Biology Corporation, Malvern, PA (http://www.reactionbiology.com).

[2] = system: phospho-ATM, CtIP, RPA32, and RAD51 in PT#3-R GBM cells; assay: Western blot of DNA repair proteins; type: cell-based, human; conditions: 72 h
Protocol: The experimental procedure was performed as described in our previous study.[41] On the day prior to the experiment, […] cells were seeded into each well of a 6-well plate. The following day, the cells were washed twice with PBS and treated with 10 μM compound 1. […] The antibody models and dilution ratios used are detailed in Table S1. Protein image collection and quantification were done by the ChemiDoc Touch Imaging System (Cat. No. 12676029, Bio-Rad Laboratories, Inc., CA, USA).

For `O=C(/C=C/c1ccc(CNC[C@H]2CN(c3ccc(N4CCOCC4)c(F)c3)C(=O)O2)cc1)NO` [compound 1, (S,E)-3-(4-((((3-(3-Fluoro-4-morpholinophenyl)-2-oxooxazolidin-5-yl)methyl)ami-no)methyl)phenyl)-N-hydroxyacrylamide], the “adverse reactions during the treatment period” value [1] was “without adverse reactions observed”, the “growth of orthotopic tumors (IVIS)” value (CT-2A astrocytoma cells) was “effectively inhibited the growth of orthotopic tumors” and the IC50 (HDAC6) was 106 nM. The “CtIP, RPA32 and RAD51 protein expression” value [2] was “significant suppression” and the “phosphorylation of ATM” value [2] was “significant increase in the phosphorylation”.
